From patent US6214876A, “Indene-1-acetamide sPLA2 inhibitors” (Eli Lilly and Company, priority 1994, dated 2001)

Target: T1, recombinant human secreted phospholipase A2 (Homo sapiens, UniProt P14555)
T1 sequence (P14555 21-144): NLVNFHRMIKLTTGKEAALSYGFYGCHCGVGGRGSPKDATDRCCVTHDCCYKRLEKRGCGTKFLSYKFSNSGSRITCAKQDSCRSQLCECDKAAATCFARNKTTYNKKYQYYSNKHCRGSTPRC
Assay: PLA2 Chromogenic Assay (human secreted phospholipase A2 inhibition)
Type: biochemical
Conditions: racemic diheptanoyl thio-PC 1 mM, pH 7.5, 40° C., 30 minutes, 405 nanometers, triplicate, read-out: Compound IC50
Source text: The following chromogenic assay procedure was used to identify and evaluate inhibitors of recombinant human secreted phospholipase A2. The assay described herein has been adapted for high volume screening using 96 well microtiter plates. A general description of this assay method is found in the article, "Analysis of Human Synovial Fluid Phospholipase A2 on Short Chain Phosphatidylcholine-Mixed Micelles: Development of a Spectrophotometric Assay Suitable for a Microtiterplate Reader", by Laure J. Reynolds, Lori L. Hughes, and Edward A Dennis, Analytical Biochemistry,204, pp. 190-197, 1992 (the disclosure of which is incorporated herein by reference): […]
A measured volume of racemic dipheptanoyl thio PC supplied in chloroform at a concentration of 100 mg/ml is taken to dryness and redissolved in 10 millimolar TRITON X-100™ nonionic detergent aqueous solution. […]
5. Read absorbance of wells at 405 nanometers with an automatic plate reader.
All compounds were tested in triplicate. […] Compounds initially found to be active were reassayed to confirm their activity and, if sufficiently active, IC50 values were determined. […] In all cases, % inhibition measured at 405 nanometers generated by enzyme reactions containing inhibitors relative to the uninhibited control reactions was determined. […] IC50 were determined by plotting log concentration versus inhibition values in the range from 10-90% inhibition.

## CC1=C(CC(N)=O)c2cc(OCCCC(=O)O)ccc2/C1=C\c1ccccc1 [Compound 14a, 4-[3(z)-benzylidene-1-carbamoylmethyl-2-methyl-3H-inden-6-yloxy]-butanoic acid]
  IC50: 910 nM

## CC1=C(CC(N)=O)c2c(OCC(=O)O)cccc2/C1=C\c1ccccc1 [Compound 14b, [3(z)-benzylidene-1-carbamoylmethyl-2-methyl-3H-inden-7-yloxy]-acetic acid]
  IC50: 420 nM
